From patent US5245034A, “Compound having vessel smooth muscle relaxation activity” (Hidaka; Kiroyoshi, priority 1988, dated 1993)

tested on: superior mesenteric artery (contracted by potassium chloride); test: Vessel Smooth Muscle Relaxation Action (V.R.); format: cell-based, rabbit; settings: Oryctolagus cuniculus; concentration relaxing KCl-contracted strain to 50%; cumulative administration; read-out: V.R. (ED50)
From the text: The specimen was suspended by loading a strain in Krebs-Henseleit solution through which an oxygen gas containing 5% carbon dioxide was bubbled. The specimen was contracted by adding potassium chloride to maintain a predetermined strain. Thereafter, a test compound was cumulatively administrated.

First: COc1ccc(CC(CN2CCN(C(=O)OCc3ccccc3)CC2)NS(=O)(=O)c2cccc3cnccc23)cc1 (stereo not shown) [Example 73, N-[2-(4-benzyloxycarbonylpiperazinyl)-1-(p-methoxybenzyl)ethyl]-5-isoquinolinesulfonamide]
Second: O=C(OCc1ccccc1)N1CCCN(CC(Cc2ccc(O)cc2)NS(=O)(=O)c2cccc3cnccc23)CC1 (stereo not shown) [Example 116, N-{2-(4-benzyloxycarbonylhomopiperazinyl)-1-(p-hydroxybenzyl)ethyl}-5-isoquinolinesulfonamide]
The EC50 of the first is 9.3-fold higher: 14 µM for the first, 1.5 µM for the second.

Going from `CN(C(Cc1ccc(O)cc1)CN1CCN(C(=O)c2ccccc2)CC1)S(=O)(=O)c1cccc2cnccc12` (stereo not shown) [Example 75, N-[2-(4-Benzoylpiperazinyl)-1-(P-Hydroxybenzyl)Ethyl]-N-Methyl-5-Isoquinolinesulfonamide] to `CN(C(Cc1ccc(O)cc1)CN1CCN(S(=O)(=O)Cc2ccccc2)CC1)S(=O)(=O)c1cccc2cnccc12` (stereo not shown) [Example 76, N-[2-(4-benzylsulfonylpiperazinyl)-1-(p-hydroxybenzyl)ethyl]-N-methyl-5-isoquinolinesulfonamide], the EC50 falls from 9.7 µM to 2.9 µM (3.3-fold).

First: CN(C(Cc1ccc(O)cc1)CN1CCN(S(=O)(=O)c2cccc3cnccc23)CC1)S(=O)(=O)c1cccc2cnccc12 (stereo not shown) [Example 77, N-{1-(p-hydroxybenzyl]-2-[4-(5-isoquinolinesulfonyl)piperazinyl]ethyl}-N-methyl-5-isoquinolinesulfonamide]
Second: COc1ccc(N2CCN(CC(Cc3ccc(NS(=O)(=O)c4cccc5cnccc45)cc3)N(C)S(=O)(=O)c3cccc4cnccc34)CC2)cc1 (stereo not shown) [Example 129, N-{1-[p-(5-isoquinolinesulfonylaminobenzyl)]-2-[4-(p-methoxyphenyl)piperazinyl]ethyl}-N-methyl-5-isoquinolinesulfonamide]
The EC50 of the first is 1.7-fold higher: 1.4 µM for the first, 0.82 µM for the second. The second is the more potent here.

First: CN(C(Cc1ccc(OS(=O)(=O)c2cccc3ccccc23)cc1)CN1CCN(C(=O)OCc2ccccc2)CC1)S(=O)(=O)c1cccc2ccccc12 (stereo not drawn) [Example 78, N-{2-(4-benzyloxycarbonylpiperazinyl)-1-[p-(α-naphtharenesulfonyloxy)benzyl]ethyl}-N-methyl-α-naphtharenesulfonamide]
Second: CN(C(Cc1ccc(O)cc1)CN1CCN(C(=O)OCc2ccccc2)CC1)S(=O)(=O)c1cccc2ccccc12 (stereo not drawn) [Example 79, N-[2-(4-benzyloxycarbonylpiperazinyl)-1-(p-hydroxybenzyl)ethyl]-N-methyl-α-naphtharenesulfonamide]
The EC50 of the first is 3.1-fold lower: 1.8 µM for the first, 5.5 µM for the second.

`CN(C(Cc1ccc(OS(=O)(=O)c2cccc3cnccc23)cc1)CN1CCCN(c2ccccc2)CC1)S(=O)(=O)c1cccc2cnccc12` (stereo not shown) [Example 81, N-{1-[p-(5-isoquinolinesulfonyloxy)benzyl]-2-(4-phenylhomopiperazinyl)ethyl}-N-methyl-5-isoquinolinesulfonamide] and `COc1ccc(N2CCN(CC(Cc3ccc(N(C)S(=O)(=O)c4cccc5cnccc45)cc3)N(C)S(=O)(=O)c3cccc4cnccc34)CC2)cc1` (stereo not shown) [Example 131, N-[[1-{P-[N-5-Isoquinolinesulfonyl)-N-(Methylamino)Benzyl]}-2-[4-(P-Methoxyphenylpiperazinyl]Ethyl]]-N-Methyl-5-Isoquinolinesulfonamide] are within 1.5-fold of each other in EC50: 1.7 µM for the first, 1.5 µM for the second.

Compared with `Cc1ccc(COC2CCN(CC(Cc3ccc(OS(=O)(=O)c4cccc5cnccc45)cc3)NS(=O)(=O)c3cccc4cnccc34)CC2)cc1` (stereo not shown) [Example 84], `COc1ccc(N2CCN(CC(Cc3ccc(NS(=O)(=O)c4cccc5cnccc45)cc3)NS(=O)(=O)c3cccc4cnccc34)CC2)cc1` (stereo not shown) [Example 130, N-{1-[p-(5-isoquinolinesulfonylaminobenzyl)]-2-[4-(p-methoxyphenyl]piperazinyl]ethyl}-5-isoquinolinesulfonamide] is 3.3-fold lower in EC50: 43 µM for the first, 13 µM for the second. The second is the more potent here.

First: CN(C(Cc1ccc(O)cc1)CN1CCC(NCc2ccccc2)CC1)S(=O)(=O)c1cccc2cnccc12 (stereo not shown) [Example 98, N-{2-[4-(N-benzylamino)piperidino]-1-(p-hydroxybenzyl)ethyl}-N-methyl-5-isoquinolinesulfonamide]
Second: CN(C(Cc1ccc(O)cc1)CN1CCC(O)CC1)S(=O)(=O)c1cccc2cnccc12 (stereo not shown) [Example 100]
The EC50 of the first is 4.3-fold lower: 22 µM for the first, 95 µM for the second. The first is the more potent here.

`COc1ccc(CC(CN2CCC(O)CC2)N(C)S(=O)(=O)c2cccc3cnccc23)cc1` (stereo not shown) [Example 101] and `CC(=O)Oc1ccc(CC(CN2CCC(OC(C)=O)CC2)N(C)S(=O)(=O)c2cccc3cnccc23)cc1` (stereo not shown) [Example 102, N-[1-(P-Acetoxybenzyl)-2-(4-Acetoxypiperidino)Ethyl]-N-Methyl-5-Isoquinolinesulfonamide] are within 1.5-fold of each other in EC50: 29 µM for the first, 24 µM for the second.

First: COc1ccc(CC(NS(=O)(=O)c2cccc3cnccc23)C(=O)N2CCCN(C(=O)Cc3ccccc3)CC2)cc1 (stereo not shown) [Example 120, 1-[N-(5-Isoquinolinesulfonyl)-O-Methyl]Tyrosyl-4-Phenylacetylhomopiperazine]
Second: O=C([C@H](Cc1ccc(O)cc1)NS(=O)(=O)c1cccc2cnccc12)N1CCCN(CCCc2ccccc2)CC1 [Example 124, 1-[N-(5-Isoquinolinesulfonyl)Tyrosyl]-4-(3-Phenylpropyl)Homopiperazine]
The EC50 of the first is 1.7-fold higher: 19 ± 3 µM for the first, 11 µM for the second. The second is the more potent here.

Compared with `COc1ccc(N2CCN(CC(Cc3ccc(N4C(=O)c5ccccc5C4=O)cc3)NS(=O)(=O)c3cccc4cnccc34)CC2)cc1` (stereo not shown) [Example 125, N-{2-[4-(P-Methoxyphenyl)Piperazinyl]-1-(P-Phthalimidebenzyl)ethyl}-5-isoquinolinesulfonamide], `COc1ccc(N2CCN(CC(Cc3ccc(N)cc3)N(C)S(=O)(=O)c3cccc4cnccc34)CC2)cc1` (stereo not shown) [Example 128, N-{1-(p-aminobenzyl)-2-[4-(p-methoxyphenyl)piperazinyl]ethyl}-N-methyl-5-isoquinolinesulfonamide] is 5.1-fold lower in EC50: 9.2 µM for the first, 1.8 µM for the second.

First: CN(c1ccccc1NCC=Cc1cccnc1)S(=O)(=O)c1cccc2cnccc12 [Example 146, N-{2-[3-(3-pyridyl)allylamino)phenyl}-N-methyl-5-isoquinolinesulfonamide]
Second: CC(C=Cc1ccccn1)NCCNS(=O)(=O)c1cccc2cnccc12 (stereo not shown) [Example 162, N-{2-[1-Methyl-3-(2-Pyridyl)-2-Propenylamino]Ethyl}-5-Isoquinolinesulfonamide]
The EC50 of the first is 12-fold lower: 2.8 µM for the first, 35 µM for the second. The first is the more potent here.

`CC(C=Cc1ccc2c(c1)OCO2)NCCNS(=O)(=O)c1cccc2cnccc12` (stereo not shown) [Example 161] and `CC(C=Cc1ccc(O)cc1)NCCNS(=O)(=O)c1cccc2cnccc12` (stereo not shown) [Example 170] are within 1.5-fold of each other in EC50: 4.7 µM for the first, 5.2 µM for the second.

First: CC(C=Cc1ccncc1)NCCNS(=O)(=O)c1cccc2cnccc12 (stereo not shown) [Example 163, N-{2-[1-Methyl-3-(4-Pyridyl)-2-Propenylamino]ethyl}-5-Isoquinolinesulfonylamide]
Second: COc1ccc(C=CC(C)NCCNS(=O)(=O)c2cccc3cnccc23)cc1 (stereo not drawn) [Example 169, N-2-(4-Methoxy-α-Methylcinnamylamino)ethyll-5-Isoquinolinesulfonamide]
The EC50 of the first is 6.7-fold higher: 31 µM for the first, 4.6 µM for the second.

Going from `CC(C=Cc1cccs1)NCCNS(=O)(=O)c1cccc2cnccc12` (stereo not shown) [Example 164, N-{2-[1-Methyl-3-(2-Thienyl)-2-Procenylamino]ethyl}-5-Isoquinolinesulfonamide] to `CC(C=Cc1ccco1)NCCNS(=O)(=O)c1cccc2cnccc12` (stereo not shown) [Example 165, N-{2-[3-(2-Furyl)-1-Methyl-2-Propenylamino]Ethyl}-5-Isoquinolinesulfonamide], the EC50 rises from 4.1 µM to 11 µM (2.7-fold).
